Reference: patent publication US10294202B2, “Pyrrolidinones as herbicides” (FMC Corporation, priority 2013, dated 2019)

Legend:
[1] = system: field poppy; assay: Test D pre-/postemergence herbicide test; format: in vivo, Papaver rhoeas; conditions: for Plant response rating: Field Poppy, scale 0 to 100; for Plant response rating, Field Poppy: scale 0 to 100 (0 no effect, 100 complete control)
From the text: (§1) Seeds of plant species selected from bluegrass (annual bluegrass, Poa annua), blackgrass (Alopecurus myosuroides), canarygrass (littleseed canarygrass, Phalaris minor), chickweed (common chickweed, Stellaria media), galium (catchweed bedstraw, Galium aparine), bromegrass, downy (downy bromegrass, Bromus tectorum), field poppy (Papaver rhoeas), field violet (Viola arvensis), foxtail, green (green foxtail, Setaria viridis), deadnettle (henbit deadnettle, Lamium amplexicaule), ryegrass, Italian (Italian ryegrass, Lolium multiflorum), kochia (Kochia scoparia), lambsquarters (Chenopodium album), oilseed rape (Brassica napus), pigweed (Amaranthus retroflexus), chamomile (scentless chamomile, Matricaria inodora), Russian thistle (Salsola kali), speedwell (bird's-eye speedwell, Veronica persica), barley, spring (spring barley, Hordeum vulgare), wheat, spring (spring wheat, Triticum aestivum), buckwheat, wild (wild buckwheat, Polygonum convolvulus), mustard, wild (wild mustard, Sinapis arvensis), oat, wild (wild oat, Avena fatua), radish, wild (wild radish, Raphanus raphanistrum), […]), barley, winter (winter barley, Hordeum vulgare), and wheat, winter (winter wheat, Triticum aestivum) were planted into a silt loam soil and treated preemergence with test chemicals formulated in a non-phytotoxic solvent mixture which included a surfactant. At the same time, these species were planted in pots containing Redi-Earth® planting medium (Scotts Company, 14111 Scottslawn Road, Marysville, Ohio 43041) comprising spaghnum peat moss, vermiculite, wetting agent and starter nutrients and treated with postemergence applications of the test chemicals formulated in the same manner. Plants ranged in height from 2 to 18 cm (1- to 4-leaf stage). Treated plants and controls were maintained in a controlled growth environment for 7 to 21 days after which time all species were compared to controls and visually evaluated. Plant response ratings, summarized in Table D, are based on a scale of 0 to 100 where 0 is no effect and 100 is complete control. A dash (-) response means no test result.

[2] = system: galium; assay: Test D pre-/postemergence herbicide test; format: in vivo, Galium aparine; conditions: for Plant response rating: Galium, scale 0 to 100; for Plant response rating, Galium: scale 0 to 100 (0 no effect, 100 complete control)
From the text: as §1

[3] = system: sandbur; assay: Test E preemergence herbicide test; format: in vivo, Cenchrus echinatus; design: key: 0 = no effect, 100 = complete control
From the text: (§2) Seeds of plant species selected from corn (Zea mays), soybean (Glycine max), velvetleaf (Abutilon theophrasti), lambsquarters (Chenopodium album), wild poinsettia (Euphorbia heterophylla), pigweed, palmer (palmer pigweed, Amaranthus palmeri), waterhemp (common waterhemp, Amaranthus rudis), surinam grass (Brachiaria decumbens), crabgrass, large (large crabgrass, Digitaria sanguinalis), crabgrass, Brazil (Brazilian crabgrass, Digitaria horizontalis), panicum, fall (fall panicum, Panicum dichotomiflorum), foxtail, giant (giant foxtail, Setaria faberii), foxtail, green (green foxtail, Setaria viridis), goosegrass (Eleusine indica), johnsongrass (Sorghum halepense), ragweed (common ragweed, Ambrosia elatior), barnyardgrass (Echinochloa crus-galli), sandbur (southern sandbur, Cenchrus echinatus), arrowleaf […] rhombifolia), ryegrass, Italian (Italian ryegrass, Lolium multiflorum), dayflower, VA (Virginia dayflower, Commelina virginica), field bindweed (Convolvulus arvensis), morningglory (Ipomoea coccinea), nightshade (eastern black nightshade, Solanum ptycanthum), kochia (Kochia scoparia), nutsedge, yellow (yellow nutsedge, Cyperus esculentus), cocklebur (common cocklebur, Xanthium strumarium), smartweed (ladysthumb smartweed, Polygonum Persicaria) and beggarticks (hairy beggarticks, Bidens pilosa), were planted into a silt loam soil and treated preemergence with test chemicals formulated in a non-phytotoxic solvent mixture which included a surfactant. Treated plants and controls were maintained in a greenhouse for 21 days, after which time all species were compared to controls and visually evaluated. Plant response ratings, summarized in Table E, are based on a scale of 0 to 100 where 0 is no effect and 100 is complete control. A dash (-) response means no test result.

[4] = system: wild poinsettia; assay: Test E preemergence herbicide test; format: in vivo, Euphorbia heterophylla; design: key: 0 = no effect, 100 = complete control
From the text: as §2

[5] = system: kochia; assay: Test E preemergence herbicide test; format: in vivo, Kochia scoparia; design: key: 0 = no effect, 100 = complete control
From the text: as §2

[6] = system: ryegrass, Italian; assay: Test E preemergence herbicide test; format: in vivo, Lolium multiflorum; design: key: 0 = no effect, 100 = complete control
From the text: as §2

[7] = system: goosegrass; assay: Test E preemergence herbicide test; format: in vivo, Eleusine indica; design: key: 0 = no effect, 100 = complete control
From the text: as §2

[8] = system: arrowleaf sida; assay: Test E preemergence herbicide test; format: in vivo, Sida rhombifolia; design: key: 0 = no effect, 100 = complete control
From the text: as §2

Molecule O=C1NCC(c2ccc(F)c(F)c2)C1C(=O)Nc1cccc(F)c1 (racemic) [Compound 12] has a Plant response rating ([1]; Postemergence, 16 g ai/ha) of 0, a Plant response rating ([1]; Postemergence, 31 g ai/ha) of 0 and a Plant response rating ([1]; Postemergence, 62 g ai/ha) of 50. The Plant response rating ([1]; Postemergence, 125 g ai/ha) was 60, the Plant response rating ([1]; Postemergence, 250 g ai/ha) was 80 and the “Plant response rating, Field Poppy” value ([1]; Preemergence, 31 g ai/ha) was 0. The “Plant response rating, Field Poppy” value ([1]; Preemergence, 62 g ai/ha) was 0, the “Plant response rating, Field Poppy” value ([1]; Preemergence, 16 g ai/ha) was 0 and the Plant response rating ([1]; Preemergence, 125 g ai/ha) was 0. It also gave a Plant response rating ([1]; Preemergence, 250 g ai/ha) of 0, a Plant response rating ([2]; Postemergence, 16 g ai/ha) of 0 and a Plant response rating ([2]; Postemergence, 31 g ai/ha) of 0. For the same molecule, the Plant response rating ([2]; Postemergence, 62 g ai/ha) was 15, the Plant response rating ([2]; Postemergence, 125 g ai/ha) was 20 and the Plant response rating ([2]; Postemergence, 250 g ai/ha) was 25. The “Plant response rating, Galium” value ([2]; Preemergence, 31 g ai/ha) was 0, the “Plant response rating, Galium” value ([2]; Preemergence, 62 g ai/ha) was 0 and the “Plant response rating, Galium” value ([2]; Preemergence, 16 g ai/ha) was 0. It also gave a Plant response rating ([2]; Preemergence, 125 g ai/ha) of 0 and a Plant response rating ([2]; Preemergence, 250 g ai/ha) of 10.

With O=C1NCC(c2ccc(F)cc2)C1C(=O)Nc1ccccc1F (racemic) [Compound 16] the “Plant response rating, Sandbur” value ([3]; 16 g ai/ha) was 0, the “Plant response rating, Sandbur” value ([3]; 31 g ai/ha) was 0 and the “Plant response rating, Sandbur” value ([3]; 62 g ai/ha) was 35. For the same molecule, the “Plant response rating, Sandbur” value ([3]; 125 g ai/ha) was 70, the “Plant response rating, Sandbur” value ([3]; 250 g ai/ha) was 95 and the “Plant response rating, Poinsettia, Wild” value ([4]; 16 g ai/ha) was 0. For the same molecule, the “Plant response rating, Poinsettia, Wild” value ([4]; 31 g ai/ha) was 0, the “Plant response rating, Poinsettia, Wild” value ([4]; 62 g ai/ha) was 0 and the “Plant response rating, Poinsettia, Wild” value ([4]; 125 g ai/ha) was 0. For the same molecule, the “Plant response rating, Poinsettia, Wild” value ([4]; 250 g ai/ha) was 0, the “Plant response rating, Kochia” value ([5]; 31 g ai/ha) was 0 and the “Plant response rating, Kochia” value ([5]; 125 g ai/ha) was 0. The “Plant response rating, Kochia” value ([5]; 250 g ai/ha) was 0, the “Plant response rating, Ryegrass, Italian” value ([6]; 16 g ai/ha) was 0 and the “Plant response rating, Ryegrass, Italian” value ([6]; 31 g ai/ha) was 0. The “Plant response rating, Ryegrass, Italian” value ([6]; 62 g ai/ha) was 0, the “Plant response rating, Ryegrass, Italian” value ([6]; 125 g ai/ha) was 0 and the “Plant response rating, Ryegrass, Italian” value ([6]; 250 g ai/ha) was 30. The “Plant response rating, Goosegrass” value ([7]; 16 g ai/ha) was 0, the “Plant response rating, Goosegrass” value ([7]; 31 g ai/ha) was 0 and the “Plant response rating, Goosegrass” value ([7]; 62 g ai/ha) was 0. For the same molecule, the “Plant response rating, Goosegrass” value ([7]; 125 g ai/ha) was 0, the “Plant response rating, Goosegrass” value ([7]; 250 g ai/ha) was 0 and the “Plant response rating, Arrowleaf Sida” value ([8]; 16 g ai/ha) was 0. The “Plant response rating, Arrowleaf Sida” value ([8]; 31 g ai/ha) was 0, the “Plant response rating, Arrowleaf Sida” value ([8]; 62 g ai/ha) was 0 and the “Plant response rating, Arrowleaf Sida” value ([8]; 125 g ai/ha) was 0. The “Plant response rating, Arrowleaf Sida” value ([8]; 250 g ai/ha) was 0.

O=C1NCC(c2cc(F)c(F)c(F)c2)C1C(=O)Nc1ccccc1C(F)(F)F (racemic) [Compound 33] was tested, and the Plant response rating ([1]; Postemergence, 16 g ai/ha) was 0, the Plant response rating ([1]; Postemergence, 31 g ai/ha) was 0 and the Plant response rating ([1]; Postemergence, 62 g ai/ha) was 0. It also gave a Plant response rating ([1]; Postemergence, 125 g ai/ha) of 0, a Plant response rating ([1]; Postemergence, 250 g ai/ha) of 0 and a Plant response rating ([2]; Postemergence, 16 g ai/ha) of 0. The Plant response rating ([2]; Postemergence, 31 g ai/ha) was 0, the Plant response rating ([2]; Postemergence, 62 g ai/ha) was 0 and the Plant response rating ([2]; Postemergence, 125 g ai/ha) was 0. For the same molecule, the Plant response rating ([2]; Postemergence, 250 g ai/ha) was 0.

O=C1NCC(c2cc(F)c(F)c(F)c2)C1C(=O)Nc1ccccc1F (racemic) [Compound 34] showed a Plant response rating ([1]; Postemergence, 16 g ai/ha) of 0, a Plant response rating ([1]; Postemergence, 31 g ai/ha) of 0 and a Plant response rating ([1]; Postemergence, 62 g ai/ha) of 0. For the same molecule, the Plant response rating ([1]; Postemergence, 125 g ai/ha) was 0, the Plant response rating ([1]; Postemergence, 250 g ai/ha) was 20 and the Plant response rating ([2]; Postemergence, 16 g ai/ha) was 0. For the same molecule, the Plant response rating ([2]; Postemergence, 31 g ai/ha) was 0, the Plant response rating ([2]; Postemergence, 62 g ai/ha) was 0 and the Plant response rating ([2]; Postemergence, 125 g ai/ha) was 0. It also gave a Plant response rating ([2]; Postemergence, 250 g ai/ha) of 0.
